“And” between values parts separate entries of the source, which are not always exact repeats. Equal entries are not always repeated.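 Grown in 96-well plates, cells were treated for 48 hours with each compound at five concentrations. Insufficient inhibition: endpoint recorded as highest concentration tested. GI50 marks 50% less growth. Definition used: TGI = concentration required for complete inhibition of growth.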
What was measured:
Assay in all cases: NCI-60 cell line screen, 48 h
[1] = tested on: 786-0 renal
[2] = tested on: A498 renal
[3] = tested on: A549 NSCLC
[4] = tested on: ACHN renal
[5] = tested on: BT-549 breast
[6] = tested on: CAKI-1 renal
[7] = tested on: CCRF-CEM leukemia
[8] = tested on: COLO 205 colon
[9] = tested on: DU-145 prostate
[10] = tested on: EKVX NSCLC
[11] = tested on: HCT-116 colon
[12] = tested on: HCT-15 colon
[13] = tested on: HL-60(TB) leukemia
[14] = tested on: HOP-62 NSCLC
[15] = tested on: HOP-92 NSCLC
[16] = tested on: HS 578T breast
[17] = tested on: HT29 colon
[18] = tested on: IGROV1 ovarian
[19] = tested on: K-562 leukemia
[20] = tested on: KM12 colon
[21] = tested on: LOX IMVI melanoma
[22] = tested on: M14 melanoma
[23] = tested on: MALME-3M melanoma
[24] = tested on: MCF7 breast
[25] = tested on: MDA-MB-231 breast
[26] = tested on: MDA-MB-435
[27] = tested on: MDA-N
[28] = tested on: MOLT-4 leukemia
[29] = tested on: NCI-H226 lung
[30] = tested on: NCI-H23 lung
[31] = tested on: NCI-H460 lung
[32] = tested on: NCI-H522 lung
[33] = tested on: NCI/ADR-RES ovarian
[34] = tested on: OVCAR-3 ovarian
[35] = tested on: OVCAR-4 ovarian
[36] = tested on: OVCAR-5 ovarian
[37] = tested on: OVCAR-8 ovarian
[38] = tested on: PC-3 prostate
[39] = tested on: RPMI-8226 leukemia
[40] = tested on: RXF 393 renal
[41] = tested on: SF-268 CNS
[42] = tested on: SF-295 CNS
[43] = tested on: SF-539 CNS
[44] = tested on: SK-MEL-2 melanoma
[45] = tested on: SK-MEL-28 melanoma
[46] = tested on: SK-MEL-5 melanoma
[47] = tested on: SK-OV-3 ovarian
[48] = tested on: SN12C renal
[49] = tested on: SNB-19 CNS
[50] = tested on: SNB-75 CNS
[51] = tested on: SR leukemia
[52] = tested on: SW-620 colon
[53] = tested on: T-47D breast
[54] = tested on: TK-10 renal
[55] = tested on: U251 CNS
[56] = tested on: UACC-257 melanoma
[57] = tested on: UACC-62 melanoma
[58] = tested on: UO-31 renal
[59] = tested on: HCC-2998 colon

`NS(=O)(=O)c1ccc(N=Nc2cc3ccccc3c(C(=O)O)c2O)cc1` was tested, and the TGI [1] was > 100 µM, the TGI [2] was > 86.8 µM and the TGI [3] was > 100 µM. For the same compound, the TGI [4] was 52.5 µM, the TGI [5] was > 100 µM and the TGI [6] was > 100 µM. For the same compound, the TGI [7] was > 100 µM, the TGI [8] was > 100 µM and the TGI [9] was > 100 µM. The TGI [10] was > 100 µM, the TGI [11] was > 100 µM and the TGI [12] was > 100 µM. The TGI [13] was > 100 µM, the TGI [14] was > 100 µM and the TGI [15] was > 100 µM. For the same compound, the TGI [16] was > 100 µM, the TGI [17] was > 100 µM and the TGI [18] was > 100 µM. The TGI [19] was > 100 µM, the TGI [20] was > 100 µM and the TGI [21] was > 100 µM. For the same compound, the TGI [22] was > 100 µM, the TGI [23] was > 82 µM and the TGI [24] was > 84.7 µM. The TGI [25] was 97 µM, the TGI [26] was > 100 µM and the TGI [27] was > 100 µM. For the same compound, the TGI [28] was > 100 µM, the TGI [29] was > 100 µM and the TGI [30] was > 100 µM. The TGI [31] was > 87.5 µM, the TGI [32] was > 65.6 µM and the TGI [33] was > 100 µM. The TGI [34] was > 87.6 µM, the TGI [35] was > 80.9 µM and the TGI [36] was > 94.5 µM. For the same compound, the TGI [37] was > 100 µM, the TGI [38] was > 90.3 µM and the TGI [39] was > 100 µM. The TGI [40] was > 70.1 µM, the TGI [41] was > 85.6 µM and the TGI [42] was > 100 µM. For the same compound, the TGI [43] was > 100 µM, the TGI [44] was > 67.1 µM and the TGI [45] was > 100 µM. The TGI [46] was > 100 µM, the TGI [47] was > 100 µM and the TGI [48] was > 100 µM. The TGI [49] was > 100 µM, the TGI [50] was > 94.4 µM and the TGI [51] was > 84.6 µM. The TGI [52] was > 100 µM, the TGI [53] was > 100 µM and the TGI [54] was > 80.6 µM. The TGI [55] was > 95.2 µM, the TGI [56] was > 92.3 µM and the TGI [57] was 97 µM. For the same compound, the TGI [58] was 99 µM.
For `CN(C)CC1CCCCCCCCCCC1=O` (centres undefined), the GI50 [1] was > 100 µM, the TGI [1] was > 100 µM and the GI50 [3] was > 100 µM. For the same compound, the TGI [3] was > 100 µM, the GI50 [4] was > 100 µM and the TGI [4] was > 100 µM. For the same compound, the GI50 [5] was > 100 µM, the TGI [5] was > 100 µM and the GI50 [6] was > 100 µM. For the same compound, the TGI [6] was > 100 µM, the GI50 [7] was > 10 µM and 99.4 µM and the TGI [7] was > 100 µM. The GI50 [8] was > 100 µM, the TGI [8] was > 100 µM and the GI50 [9] was > 100 µM. The TGI [9] was > 100 µM, the GI50 [10] was > 100 µM and the TGI [10] was > 100 µM. For the same compound, the TGI [59] was > 10 µM, the GI50 [11] was > 100 µM and the TGI [11] was > 100 µM. The GI50 [12] was > 100 µM, the TGI [12] was > 100 µM and the GI50 [13] was > 100 µM. For the same compound, the TGI [13] was > 100 µM, the GI50 [14] was > 100 µM and the TGI [14] was > 100 µM. The GI50 [15] was > 100 µM, the TGI [15] was > 100 µM and the TGI [16] was > 100 µM. The GI50 [17] was > 10 µM and 98.4 µM, the TGI [17] was > 100 µM and the TGI [18] was > 100 µM. For the same compound, the GI50 [19] was > 100 µM, the TGI [19] was > 100 µM and the GI50 [20] was > 10 µM and 78.3 µM. The TGI [20] was > 100 µM, the GI50 [22] was > 100 µM and the TGI [22] was > 100 µM. For the same compound, the GI50 [23] was > 100 µM, the TGI [23] was > 100 µM and the GI50 [24] was > 100 µM. The TGI [24] was > 100 µM, the TGI [25] was > 10 µM and the GI50 [26] was > 100 µM. The TGI [26] was > 100 µM, the GI50 [27] was > 100 µM and the TGI [27] was > 100 µM. For the same compound, the GI50 [28] was > 100 µM, the TGI [28] was > 100 µM and the GI50 [29] was > 100 µM. For the same compound, the TGI [29] was > 100 µM, the GI50 [30] was > 100 µM and the TGI [30] was > 100 µM. The GI50 [31] was > 100 µM, the TGI [31] was > 100 µM and the GI50 [32] was > 100 µM. The TGI [32] was > 100 µM, the GI50 [33] was > 100 µM and the TGI [33] was > 100 µM. For the same compound, the GI50 [34] was > 100 µM, the TGI [34] was > 100 µM and the GI50 [35] was > 100 µM. The TGI [35] was > 100 µM, the GI50 [36] was > 100 µM and the TGI [36] was > 100 µM. For the same compound, the TGI [37] was > 10 µM, the GI50 [38] was > 100 µM and the TGI [38] was > 100 µM. The TGI [39] was > 100 µM, the TGI [40] was > 10 µM and the GI50 [41] was > 100 µM. The TGI [41] was > 100 µM, the TGI [42] was > 10 µM and the GI50 [44] was > 100 µM. The TGI [44] was > 100 µM, the TGI [45] was > 100 µM and the TGI [46] was > 100 µM. For the same compound, the TGI [47] was > 100 µM, the GI50 [48] was > 100 µM and the TGI [48] was > 100 µM. The GI50 [49] was > 100 µM, the TGI [49] was > 100 µM and the TGI [50] was > 100 µM. The GI50 [51] was > 100 µM, the TGI [51] was > 100 µM and the GI50 [52] was > 100 µM. For the same compound, the TGI [52] was > 100 µM, the GI50 [53] was > 100 µM and the TGI [53] was > 100 µM. For the same compound, the GI50 [54] was > 100 µM, the TGI [54] was > 100 µM and the GI50 [55] was > 100 µM. The TGI [55] was > 100 µM, the TGI [56] was > 10 µM and the TGI [57] was > 100 µM. For the same compound, the GI50 [58] was > 100 µM and the TGI [58] was > 100 µM.
In the case of `CCOC(=O)/C=C/C(Br)=C(Br)/C=C/C(=O)OCC`, the TGI [1] is reported as 8.61 µM, the TGI [2] is reported as 74.3 µM and the TGI [3] is reported as 56 µM. It also gave a TGI [4] of 25.8 µM, a TGI [5] of 12.4 µM and a TGI [6] of 13.9 µM. The TGI [7] was 2.84 µM, the TGI [8] was 30.8 µM and the TGI [9] was 29.1 µM. It also gave a TGI [10] of 36.2 µM, a TGI [59] of 49 µM and a TGI [11] of 17 µM. It also gave a TGI [12] of 10.7 µM, a TGI [13] of 26.1 µM and a TGI [14] of 36.7 µM. For the same compound, the TGI [15] was 37.1 µM, the TGI [16] was > 76.2 µM and the TGI [17] was 29.1 µM. The TGI [18] was 30.1 µM, the TGI [19] was 10.9 µM and the TGI [20] was 32.6 µM. It also gave a TGI [21] of 7.44 µM, a TGI [22] of 30.3 µM and a TGI [23] of 17.5 µM. For the same compound, the TGI [24] was 26.2 µM, the TGI [25] was 31.1 µM and the TGI [26] was 18.1 µM. It also gave a TGI [27] of 27.3 µM, a TGI [28] of 5.93 µM and a TGI [29] of 56.1 µM. For the same compound, the TGI [30] was 30 µM, the TGI [31] was > 100 µM and the TGI [32] was 7.14 µM. It also gave a TGI [33] of 64.8 µM, a TGI [34] of 24.9 µM and a TGI [35] of 34.8 µM. For the same compound, the TGI [36] was 34.9 µM, the TGI [37] was 21.3 µM and the TGI [38] was 28 µM. It also gave a TGI [39] of 15.6 µM, a TGI [40] of 24.9 µM and a TGI [41] of 40.4 µM. It also gave a TGI [42] of 28.8 µM, a TGI [44] of 49.3 µM and a TGI [45] of 33.4 µM. For the same compound, the TGI [46] was 27.7 µM, the TGI [47] was 47.8 µM and the TGI [48] was 25.9 µM. It also gave a TGI [49] of 33.6 µM, a TGI [50] of 26 µM and a TGI [51] of 34.4 µM. The TGI [52] was 5.31 µM, the TGI [53] was > 64.5 µM and the TGI [54] was 28.1 µM. For the same compound, the TGI [55] was 27.9 µM, the TGI [56] was 43.5 µM and the TGI [57] was 30.9 µM. It also gave a TGI [58] of 23.8 µM.

Reference: PubChem BioAssay (NCI)
